Reference: article PMC12430429, “Synthesis, Structure, DNA/BSA Binding, DNA Cleaving, Cytotoxic and SOD Mimetic Activities of Copper(II) Complexes Derived from Methoxybenzylamine Schiff Base Ligands” (Molecules, 2025)
Read-outs that look alike come from different tables or passages of the source.

Assays:
[1] = tested on: HepG2 cells; experiment: MTT cytotoxicity assay, HepG2; format: cell-based, human; conditions: 72 h
Method: (§1) The cytotoxicity study of the prepared copper(II) complexes was performed using the MTT assay on human cell lines—A549 (adenocarcinoma human alveolar basal epithelial cell line), HepG2 (human liver cancer cell line) and HEL (human lung fibroblast cell line, normal cells).
(§2) The cytotoxicity of the prepared copper(II) complexes in human cell lines was evaluated using the 3-(4,5-dimethylthiazol-2-yl)-2,5-diphenyltetrazolium bromide (MTT) assay following the protocol by Mosmann. Briefly, A549 (human lung epithelial cells, carcinoma), HepG2 (human liver epithelial cells, carcinoma) and HEL (human lung fibroblast cells, normal) cells were seeded in plastic 96-well plates at a density of 1.5–2 × 10^4 cells per well. […] After the treatment, the samples were washed with phosphate-buffered saline (PBS), followed by 4 h of incubation with 1 mg/mL of MTT. Subsequently, the MTT solution was removed, and the formed formazane solids were dissolved in dimethyl sulfoxide for 30 min. The photometric evaluation (at 540 nm and 690 nm) was carried out using an xMark™ Microplate Absorbance Spectrophotometer (Bio-Rad, Hercules, CA, USA) [88].
(§3) A549 (ATCC® CCL-185), HepG2 (ATCC® HB-8065) and HEL299 (ATCC® CCL-137) cells were obtained from Lambda Life (Bratislava, Slovakia). A549 cells were kept in Dulbecco’s Modified Eagle’s Medium (DMEM) supplemented with 10% fetal bovine serum (FBS) and 1% antibiotics (penicillin and streptomycin). HepG2 cells were kept in Williams medium supplemented with 10% fetal bovine serum (FBS) and 1% antibiotics (penicillin and streptomycin). HEL299 cells were kept in Minimum Essential Medium (MEM) supplemented with 10% fetal bovine serum (FBS), 1% antibiotics (penicillin and streptomycin) and 1% non-essential amino acids (NEAA). The cells were cultured in a humidified atmosphere of 5% CO2 at 37 °C. Once the cells reached approximately 80% confluence, they were harvested and subcultured after trypsin treatment.

[2] = tested on: ct-DNA; experiment: DNA binding study by UV–Vis absorption titration; set-up: species or system calf; conditions: intraligand band ca. 370 nm on addition of ct-DNA
Method: The absorption spectra of complexes 4a–c (1 × 10^−[…]) were recorded in the presence of increasing amounts of ct-DNA. Intraligand absorption bands with λmax in the region 350 –380 nm were used to monitor the interaction of compounds with ct-DNA. The intraligand absorption value was chosen as λmax = […], so the absorbance of DNA would not interfere. The UV–Vis spectrum affected by DNA addition is shown for complexes 4a in Figure 3, and the UV–Vis spectra of other compounds are provided in the Supplementary Materials (Figure S3-1).
The DNA binding constants (Kb) of the complexes were determined by the Wolfe–Shimer equation (Equation (1)) and the respective plots (Figure 3 and Figure S3-1).
The interactions of prepared complexes 4a–c with ct-DNA have been studied by UV–Vis monitored titration. The ct-DNA solution was prepared by dissolving 6 mg of ct-DNA in 5 mL of citrate buffer (composed of 15 mM sodium citrate and 150 mM sodium chloride mixture solution, at pH = 7.0). The concentration of ct-DNA was then determined by UV–Vis spectroscopy with the molar absorption coefficient of ct-DNA at 260 nm (6600 M^−1cm^−1). The studied complexes were dissolved in DMSO, from which working solutions were prepared by dilution using citrate buffer solution. Increasing concentrations of ct-DNA were then added to a buffer/DMSO solution (<1% DMSO) of the corresponding complex (1 × 10^−[…]).
For the values of the binding strength of the interaction between the complex and the DNA molecule, binding constants Kb were calculated by the ratio of slope to the y intercept in the plots [DNA]/(εA-εf) compared to [DNA], according to the Wolfe–Shimer equation (Equation (1)):(1) [DNA]/(εA−εf)=[DNA]/(εb−εf)+1/Kb(εb−εf) where [DNA] is the concentration of DNA in base pairs, εf is the extinction coefficient of the free complex at the corresponding λmax, εA = Aobsd/[compound] and εb is the extinction coefficient of the complex in the fully bound form.

[3] = tested on: HEL cells (human lung fibroblast, normal); experiment: MTT cytotoxicity assay, HEL; format: cell-based; conditions: 72 h
Method: as §1, §2, §3

[4] = SOD mimetic activity / radical scavenging assay (INT method); format: biochemical; conditions: for Activity at c1 (%), inhibition of radical transfer to INT: c1 = 0.572 mM
Method: The radical scavenging ability with respect to the SOD mimetic activity of the prepared complexes was determined by the INT method. This method is based on a competitive reaction with the superoxide anion radical from KO2 between the measured compound (complex) and 2-(4-Iodophenyl)-3-(4-nitrophenyl)-5-phenyl-2H-tetrazolium chloride (INT). INT reacts with the single electron of O2^− and produces blue-green formazane detected as light absorption at 500 nm. Complexes with good antiradical activity also react with O2^−, and as a result of this, less formazane is formed.
The first type of antiradical activity measurements involved the determination of inhibition percent values of electron transfer on INT at specific concentrations (Table 9). Two concentrations were selected to achieve good solubility of the complexes (4 and 1 mM for 4a and 4c, 2 and 1 mM for 4b). The complex 4b dissolved readily at a concentration of 4 mM, but the mixture was very dark, making measurements at 500 nm difficult. Therefore, a less concentrated initial solution was used (2 mM) as the higher concentration. In total, 0.5 mL of the initial solutions was used to prepare sample solutions that also contained INT and KO2 solutions and DMSO with an overall volume of 3.5 mL. The resulting concentrations were c1 = 0.572 mM, c1* = 0.286 mM and c2 = 0.143 mM, respectively. Complexes 4a and 4c once again provided high percentages at c1 (approximately 96–99%) but the activity dropped below 24% at c2, while complex 4b maintained mediocre activity at both concentrations. It seems that the concentration increase had only a small effect on the activity of 4b; something similar was also observed in the DNA cleavage study for complex 4b. The complexes were compared with the model compound cystamine, which was used as a standard for superoxide antiradical scavenging due to the presence of a free […] group, which is also present in glutathione.
To improve the comparability of SOD mimetic activity, IC50 concentrations were determined by performing a series of measurements with decreasing concentration. IC50 values were calculated from the trend function equation as the concentration with 50% inhibition of electron transfer on INT (Table 10).
The method is based on the agent 2-(4-Iodophenyl)-3-(4-nitrophenyl)-5-phenyl-2H-tetrazolium chloride (INT), able to scavenge a superoxide radical anion from KO2. The reaction produces a blue-green formazane, which is detected as light absorption at 500 nm. The radical scavengers (measured complexes) compete with INT for radicals and reduce the formation of formazane and light absorption at 500 nm. Antiradical activity was measured on a Synergy HT BioTek spectrophotometer. DMSO was used as the solvent for the complex and KO2 (saturated solution). The INT initial solution (4 M) was prepared in a sodium tetraborate buffer solution with pH adjusted to 7.1 with HCl.
For each measurement, an initial solution of the sample (0.5 mL) of a specific concentration (4–0.1 mM) was prepared in DMSO. Due to the addition of INT (0.5 mL) and KO2 (0.5 mL) solutions and additional DMSO (2 mL), the concentrations of the measured complexes decreased seven times (3.5 mL of total mixture). Each result was the average value of three parallel measurements expressed with a standard deviation (more information in the Supplementary Materials). For the determination of SOD-IC50, several measurements with decreasing sample concentration were performed. […] A linear trend function of the percentage of inhibition and negative logarithm of concentration was used to calculate the SOD-IC50 value as the concentration with 50% inhibition of INT–formazane formation. […]
Green: 5c 5 mM (S. cerevisiae 1x10^9 cells /ml + 0.5 ml 0.9% NaCl + 0.5 ml 5c + 0.1 ml Resazurin OX) measured in time
S6. SOD Mimetic A ctivity A ssay
For each measurement, an initial solution of the sample of a specific concentration was prepared […]

[5] = 50% inhibition of electron transfer on INT, read-out: SOD-IC50

SMILES	IC50 [1]	decrease of intensity (ΔA/A0), hypochromism [2]	IC50 [3]	IC50 [4, 5]	IC50 ([4]; INT method, read-out: concentration of 50% inhibition (SOD-IC50), given as range)	Activity at c1* (%), inhibition of radical transfer to INT ([4]; c1* = 0.286 mM (reduced for complex 4b))	Activity at c2 (%), inhibition of radical transfer to INT ([4]; c2 = 0.143 mM)	Activity at c1 (%), inhibition of radical transfer to INT [4]
COc1cccc(CN=Cc2ccccc2[O][Cu][O]c2ccccc2C=NCc2cccc(OC)c2)c1 [Complex 4b, [Cu (Sal-3-MeOBn)2]]	32.8 ± 4.9 µM	26%	44.3 ± 3.6 µM	1090 ± 56 µM	> 1000 µM	40.1 ± 1.9 * %	35.8 ± 1.3%	
COc1ccc(CN=Cc2ccccc2[O-])cc1.COc1ccc(CN=Cc2ccccc2[O-])cc1.[Cl-].[Cl-].[Cu+2].[Cu+2] [Complex 4c, [Cu2 (Sal-4-MeOBn)2 Cl2]]	21.6 ± 4.9 µM	28%	62.9 ± 6.2 µM	189 ± 11 µM				98.9 ± 0.5%
COc1ccccc1CN=Cc1ccccc1[O-].COc1ccccc1CN=Cc1ccccc1[O-].[Cl-].[Cl-].[Cu+2].[Cu+2] [Complex 4a, [Cu2 (Sal-2-MeOBn)2 Cl2]]	17.9 ± 2.6 µM	32%	65.9 ± 6.9 µM	242 ± 1 µM				95.8 ± 2.2%
